molecular target: BTK (Homo sapiens (Human), UniProt Q06187); test: Btk kinase assay (HTRF); format: biochemical; conditions: [ATP]=80 μM, BTK=3.4 nM; read-out: BTK Inhibition
Method: Btk Kinase Assay and Other Kinases Assay Btk kinase activity was determined using a homogenous time resolved fluorescence (HTRF) methodology. Measurements were performed in a reaction volume of 15 μL using 384-well assay plates. Kinase enzyme, inhibitor, ATP and 1 μM peptide substrate were incubated in a reaction buffer compose of Hepes 50 mM (pH7.0), NaN3 0.02%, BSA 0.01%, Orthocanadate 0.1 mM. […] For each compound, enzyme activity as measured at various concentrations of compound, Negative control reactions were performed in the absence of inhibitor in two replicates and eight no enzyme controls were used to determine baseline fluorescence levels.

Chain of BTK (Q06187 whole entry, species assumed): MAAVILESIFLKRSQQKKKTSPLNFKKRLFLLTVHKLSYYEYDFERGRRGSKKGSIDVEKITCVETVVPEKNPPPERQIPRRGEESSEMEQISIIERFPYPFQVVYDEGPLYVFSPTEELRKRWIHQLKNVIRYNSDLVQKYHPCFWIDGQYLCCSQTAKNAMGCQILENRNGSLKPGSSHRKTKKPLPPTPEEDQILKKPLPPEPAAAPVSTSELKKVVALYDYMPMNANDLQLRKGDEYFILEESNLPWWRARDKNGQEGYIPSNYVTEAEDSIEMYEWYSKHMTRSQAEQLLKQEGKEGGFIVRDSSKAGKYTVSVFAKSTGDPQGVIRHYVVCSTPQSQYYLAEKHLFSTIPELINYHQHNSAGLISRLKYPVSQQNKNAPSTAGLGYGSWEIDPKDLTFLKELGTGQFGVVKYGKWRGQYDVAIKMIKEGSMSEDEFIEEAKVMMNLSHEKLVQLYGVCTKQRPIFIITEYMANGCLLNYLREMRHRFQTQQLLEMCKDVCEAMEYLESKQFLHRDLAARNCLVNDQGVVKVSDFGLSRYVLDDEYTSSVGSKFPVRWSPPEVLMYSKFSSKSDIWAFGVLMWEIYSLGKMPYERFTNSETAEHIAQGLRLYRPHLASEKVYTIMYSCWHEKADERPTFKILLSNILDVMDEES

`CC#CC(=O)N1CCC[C@@H](n2nc(-c3ccc(Oc4cccc(OC)c4F)cc3)c3cncc(OCCN(C)C)c32)C1` [Compound 94, (R)-1-(3-(7-(2-(dimethylamino)ethoxy)-3-(4-(2-fluoro-3-methoxyphenoxy)phenyl)-1H-pyrazolo[4,3-c]pyridin-1-yl)piperidin-1-yl)but-2-yn-1-one] and `C=CC(=O)N1CCC[C@@H](n2nc(-c3ccc(Oc4cccc(OC)c4F)cc3)c3cncc(OCCN)c32)C1` [Compound 87, (R)-1-(3-(7-(2-aminoethoxy)-3-(4-(2-fluoro-3-methoxyphenoxy)phenyl)-1H-pyrazolo[4,3-c]pyridin-1-yl)piperidin-1-yl)prop-2-en-1-one] fall in the same range of IC50: 10 to 100 nM for the first, 10 to 100 nM for the second.

First: C=CC(=O)N1CC[C@@H](n2nc(-c3ccc(Oc4cccc(C)c4F)cc3)c3cnccc32)C1 [Compound 47, (R)-1-(3-(3-(4-(2-fluoro-3-methylphenoxy)phenyl)-1H-pyrazolo[4,3-c]pyridin-1-yl)pyrrolidin-1-yl)prop-2-en-1-one]
Second: C=CC(=O)N1CC[C@@H](n2nc(-c3ccc(Oc4cccc(F)c4OC)cc3)c3cnccc32)C1 [Compound 49, (R)-1-(3-(3-(4-(3-fluoro-2-methoxyphenoxy)phenyl)-1H-pyrazolo[4,3-c]pyridin-1-yl)pyrrolidin-1-yl)prop-2-en-1-one]
The IC50 of the first is lower: < 10 nM for the first, 10 to 100 nM for the second. The first is the more potent here.

Compared with `C=CC(=O)N1CCC[C@@H](n2nc(-c3ccc(Oc4cccc(OC)c4F)cc3)c3cncc(OC(C)C)c32)C1` [Compound 96, (R)-1-(3-(3-(4-(2-fluoro-3-methoxyphenoxy)phenyl)-7-isopropoxy-1H-pyrazolo[4,3-c]pyridin-1-yl)piperidin-1-yl)prop-2-en-1-one], `C=CC(=O)N1CCC[C@@H](n2nc(-c3ccc(Oc4cccc(OC)c4F)cc3)c3cncc(OCCCC)c32)C1` [Compound 76, (R)-1-(3-(7-butoxy-3-(4-(2-fluoro-3-methoxyphenoxy)phenyl)-1H-pyrazolo[4,3-c]pyridin-1-yl)piperidin-1-yl)prop-2-en-1-one] is lower in IC50: 10 to 100 nM for the first, < 10 nM for the second.

Compared with `C=CC(=O)N1CC[C@@H](n2nc(-c3ccc(N4CCN(C)CC4)cc3)c3cnccc32)C1` [Compound 112, (R)-1-(3-(3-(4-(4-methylpiperazin-1-yl)phenyl)-1H-pyrazolo [4,3-c]pyridin-1-yl)pyrrolidin-1-yl)prop-2-en-1-one], `C=CC(=O)N1CC[C@@H](n2nc(-c3ccc(-c4cccc(C)c4)cc3)c3cnccc32)C1` [Compound 107, (R)-1-(3-(3-(3′-methyl-[1,1′-biphenyl]-4-yl)-1H-pyrazolo[4,3-c]pyridin-1-yl)pyrrolidin-1-yl)prop-2-en-1-one] is lower in IC50: 100 to 1000 nM for the first, 10 to 100 nM for the second.

Compared with `C=CC(=O)N1CC[C@@H](n2nc(-c3ccc(Oc4cccc(OC)c4F)cc3)c3c2CCN(C(C)=O)C3)C1` [Compound 45, (R)-1-(3-(5-acetyl-3-(4-(2-fluoro-3-methoxyphenoxy)phenyl)-4,5,6,7-tetrahydro-1H-pyrazolo[4,3-c]pyridin-1-yl)pyrrolidin-1-yl)prop-2-en-1-one], `C=CC(=O)N1CC[C@@H](n2nc(-c3ccc(Oc4cccc(OC)c4F)cc3)c3cncc(C)c32)C1` [Compound 5, (R)-1-(3-(3-(4-(2-fluoro-3-methoxyphenoxy)phenyl)-7-methyl-1H-pyrazolo [4,3-c]pyridin-1-yl)pyrrolidin-1-yl) prop-2-en-1-one] is lower in IC50: 1000 to 10000 nM for the first, < 10 nM for the second. The second is the more potent here.

`C=CC(=O)N1CCC[C@@H](n2nc(-c3ccc(Oc4cccc(Cl)c4)cc3)c3cnccc32)C1` [Compound 9, (R)-1-(3-(3-(4-(3-chlorophenoxy)phenyl)-1H-pyrazolo[4,3-c]pyridin-1-yl)piperidin-1-yl)prop-2-en-1-one] and `C=CC(=O)N1CCC[C@H](n2nc(-c3ccc(Oc4cccc(C)c4)cc3)c3cnccc32)C1` [Compound 37, (S)-1-(3-(3-(4-(m-tolyloxy)phenyl)-1H-pyrazolo[4,3-c]pyridin-1-yl)piperidin-1-yl)prop-2-en-1-one] fall in the same range of IC50: 10 to 100 nM for the first, 10 to 100 nM for the second.

`C=CC(=O)N1CCCC(Cn2nc(-c3ccc(Oc4ccccc4)cc3)c3cnccc32)C1` (stereo not shown) [Compound 53, 1-(3-((3-(4-phenoxyphenyl)-1H-pyrazolo[4,3-c]pyridin-1-yl)methyl)piperidin-1-yl)prop-2-en-1-one] and `C=CC(=O)N1CC(n2nc(-c3ccc(Oc4ccccc4)cc3)c3cnccc32)C1` [Compound 52, 1-(3-(3-(4-phenoxyphenyl)-1H-pyrazolo[4,3-c]pyridin-1-yl)azetidin-1-yl)prop-2-en-1-one] fall in the same range of IC50: 10 to 100 nM for the first, 10 to 100 nM for the second.

`C=CC(=O)N1CCC[C@@H](n2nc(-c3ccc(Oc4ccccc4)c(F)c3)c3cnccc32)C1` [Compound 51, (R)-1-(3-(3-(3-fluoro-4-phenoxyphenyl)-1H-pyrazolo[4,3-c]pyridin-1-yl)piperidin-1-yl)prop-2-en-1-one] and `C=CC(=O)N1CCC[C@H](n2nc(-c3ccc(Oc4cccc(F)c4Cl)cc3)c3cnccc32)C1` [Compound 40, (S)-1-(3-(3-(4-(2-chloro-3-fluorophenoxy)phenyl)-1H-pyrazolo[4,3-c]pyridin-1-yl)piperidin-1-yl)prop-2-en-1-one] fall in the same range of IC50: 10 to 100 nM for the first, 10 to 100 nM for the second.

First: COc1cccc(Oc2ccc(-c3nn([C@@H]4CCCN(C(=O)C(C)O)C4)c4c(OC)cncc34)cc2)c1F (stereo partly drawn) [Compound 118, 1-((R)-3-(3-(4-(2-fluoro-3-methoxyphenoxy)phenyl)-7-methoxy-1H-pyrazolo[4,3-c]pyridin-1-yl)piperidin-1-yl)-2-hydroxypropan-1-one]
Second: COc1cccc(Oc2ccc(-c3nn(C4CCC(C(=O)O)CC4)c4c(OC)cncc34)cc2)c1F (stereo not shown) [Compound 122, 4-(3-(4-(2-fluoro-3-methoxyphenoxy)phenyl)-7-methoxy-1H-pyrazolo[4,3-c]pyridin-1-yl)cyclohexanecarboxylic acid]
The IC50 of the first is higher: 10 to 100 nM for the first, < 10 nM for the second. The second is the more potent here.

`C=CC(=O)N1CC[C@@H](n2nc(-c3ccc(Oc4cccc5ccccc45)cc3)c3cnccc32)C1` [Compound 7, (R)-1-(3-(3-(4-(naphthalen-1-yloxy)phenyl)-1H-pyrazolo[4,3-c]pyridin-1-yl)pyrrolidin-1-yl)prop-2-en-1-one] and `C=CC(=O)N1CC[C@@H](n2nc(-c3ccc(Oc4cccc(C)c4)cc3)c3cnccc32)C1` [Compound 10, (R)-1-(3-(3-(4-(m-tolyloxy)phenyl)-1H-pyrazolo[4,3-c]pyridin-1-yl)pyrrolidin-1-yl)prop-2-en-1-one] fall in the same range of IC50: 10 to 100 nM for the first, 10 to 100 nM for the second.

`O=C(Nc1ccc(-c2nn(C3CCC(C(=O)O)CC3)c3ccncc23)cc1)c1ccccc1` (stereo not shown) [Compound 123, 4-(3-(4-benzamidophenyl)-1H-pyrazolo[4,3-c]pyridin-1-yl)cyclohexanecarboxylic acid] and `O=C(O)C1CCC(n2nc(-c3ccc(-c4ccccc4)cc3)c3cnccc32)CC1` (stereo not shown) [Compound 124, 4-(3-([1,1′-biphenyl]-4-yl)-1H-pyrazolo[4,3-c]pyridin-1-yl)cyclohexanecarboxylic acid] cannot be ordered by IC50: > 10000 nM for the first, > 10000 nM for the second.

Compared with `C=CC(=O)N1CC2(CC(n3nc(-c4ccc(Oc5cccc(OC)c5Cl)cc4)c4cnccc43)C2)C1` [Compound 30, 1-(6-(3-(4-(2-chloro-3-methoxyphenoxy)phenyl)-1H-pyrazolo[4,3-c]pyridin-1-yl)-2-azaspiro[3.3]heptan-2-yl)prop-2-en-1-one], `C=CC(=O)N1CC2(CC(n3nc(-c4ccc(Oc5cccc(OC)c5F)cc4)c4cnccc43)C2)C1` [Compound 26, 1-(6-(3-(4-(2-fluoro-3-methoxyphenoxy)phenyl)-1H-pyrazolo[4,3-c]pyridin-1-yl)-2-azaspiro[3.3]heptan-2-yl)prop-2-en-1-one] is lower in IC50: 100 to 1000 nM for the first, < 10 nM for the second.

First: C=CC(=O)N1CC[C@@H](n2nc(-c3ccc(Oc4ccccc4)cc3)c3cncc(F)c32)C1 [Compound 66]
Second: C=CC(=O)N1CC[C@@H](n2nc(-c3ccc(Oc4ccccc4)cc3)c3c(N)cccc32)C1 [Compound 54, (R)-1-(3-(4-amino-3-(4-phenoxyphenyl)-1H-indazol-1-yl)pyrrolidin-1-yl)prop-2-en-1-one]
The IC50 of the first is lower: < 10 nM for the first, 10 to 100 nM for the second. The first is the more potent here.

First: COc1cccc(Oc2ccc(-c3nn([C@@H]4CCCN(C(=O)C5CC6(C5)CN(S(=O)(=O)c5ccc(C)cc5)C6)C4)c4c(OC)cncc34)cc2)c1F [Compound 74, (R)-(3-(3-(4-(2-fluoro-3-methoxyphenoxy)phenyl)-7-methoxy-1H-pyrazolo [4,3-c]pyridin-1-yl)piperidin-1-yl)(2-tosyl-2-azaspiro[3.3]heptan-6-yl)methanone]
Second: C=CC(=O)N1CC[C@@H](n2nc(-c3ccc(Oc4cccc(OC)c4F)cc3)c3cncc(Cl)c32)C1 [Compound 27, (R)-1-(3-(7-chloro-3-(4-(2-fluoro-3-methoxyphenoxy)phenyl)-1H-pyrazolo[4,3-c]pyridin-1-yl)pyrrolidin-1-yl)prop-2-en-1-one]
The IC50 of the first is higher: 100 to 1000 nM for the first, 10 to 100 nM for the second. The second is the more potent here.

Compared with `C=CC(=O)N1CCC(n2nc(-c3ccc(NC(=O)c4cccc(C(F)(F)F)c4)cc3)c3cnccc32)C1` (stereo not shown) [Compound 116, N-{4-[1-(1-Acryloyl-pyrrolidin-3-yl)-1H-pyrazolo[4,3-c]pyridin-3-yl]-phenyl}-3-trifluoromethyl-benzamide], `C=CC(=O)N1CC[C@@H](n2nc3ccncc3c2-c2ccc(-c3cccc(C)c3)cc2)C1` [Compound 108, (R)-1-(3-(3-(3′-methyl-[1,1′-biphenyl]-4-yl)-2H-pyrazolo[4,3-c]pyridin-2-yl)pyrrolidin-1-yl)prop-2-en-1-one] is higher in IC50: 10 to 100 nM for the first, 100 to 1000 nM for the second.

`C=CC(=O)N1CC[C@@H](n2nc(-c3ccc(Oc4cccc(OC)c4F)cc3)c3cncc(C#N)c32)C1` [Compound 28, (R)-1-(1-acryloylpyrrolidin-3-yl)-3-(4-(2-fluoro-3-methoxyphenoxy)phenyl)-1H-pyrazolo[4,3-c]pyridine-7-carbonitrile] was tested, and the IC50 was < 10 nM.
